Assay results from patent US9822099B2, “Triazole derivatives” (priority 2013, dated 2017).
Like-named read-outs stand apart in the source and are kept apart here. Marks after values point to notes of the source that are not given here.

Experiments:
Septoria tritici = assay: Example D: in vivo preventive test on Septoria tritici (leaf spot on wheat); conditions: wheat plants, preventive spray, evaluated 24 days after inoculation
Description: (§1) The young plants of wheat are treated by spraying the active ingredient prepared as described above. Control plants are treated only with an aqueous solution of acetone/Dimethyl sulfoxide/Tween®. After 24 hours, the plants are contaminated by spraying the leaves with an aqueous suspension of Septoria tritici spores.

Puccinia recondita = assay: Example B: in vivo preventive test on Puccinia recondita (brown rust on wheat); conditions: wheat plants, preventive spray, evaluated 11 days after inoculation
Description: as §1, with “Puccinia recondita” for “Septoria tritici”

Sphaerotheca fuliginea = assay: Example E: in vivo preventive test on Sphaerotheca fuliginea (powdery mildew on cucurbits); conditions: gherkin plants, preventive spray, evaluated 15 days after inoculation
Description: as §1, with “gherkin” for “wheat”, “Sphaerotheca fuliginea” for “Septoria tritici”

Uromyces appendiculatus = assay: Example F: in vivo preventive test on Uromyces appendiculatus (bean rust); conditions: bean plants, preventive spray, evaluated 11 days after inoculation
Description: as §1, with “bean” for “wheat”, “Uromyces appendiculatus” for “Septoria tritici”

[1] = method [a]: LC-MS at pH 2.7, 0.1% formic acid in water / acetonitrile gradient

LogP (pH 2.7)	SMILES	Eff. % (Sphaerotheca fuliginea; 100 ppm of active ingredient) [%]	LogP [1]	further results
1.23^[a]	OC(Cc1ccnc(Cl)c1F)(Cn1cncn1)c1ccc(Cl)nc1 (racemic) [Example I-86]	–	–	Eff. % (Septoria tritici; 500 ppm of active ingredient): 72%
3.58^[a]	OC(Cc1cc(Cc2ccc(Cl)c(Cl)n2)cc(Cl)n1)(Cn1cncn1)C1(Cl)CC1 (centres unmarked) [Example I-32]	–	–	Eff. % (Puccinia recondita; 100 ppm of active ingredient): 75%
1.23^[a]	OC(Cc1ccnc(Cl)c1F)(Cn1cncn1)C1(F)CC1 (racemic) [Example I-87]	–	–	Eff. % (Puccinia recondita; 500 ppm of active ingredient): 89%; Eff. % (Septoria tritici; 500 ppm of active ingredient): 83%; Eff. % (Sphaerotheca fuliginea; 500 ppm of active ingredient): 72%; Eff. % (Uromyces appendiculatus; 500 ppm of active ingredient): 78%
1.23^[a]	OC(Cc1ccncc1Cl)(Cn1cncn1)c1cccnc1Cl (centres unmarked) [Example I-14]	100	–	Eff. % (Uromyces appendiculatus; 100 ppm of active ingredient): 87%
1.60^[a]	OC(Cc1cc(Cl)ncc1F)(Cn1cncn1)c1ccc(Cl)nc1 (centres unmarked) [Example I-42]	98	–	–
2.00^[a]	OC(Cc1cccc(Cl)c1)(Cc1ccncc1F)Cn1cncn1 (centres unmarked) [Example I-22]	–	–	Eff. % (Septoria tritici; 100 ppm of active ingredient): 88%
1.96^[a]	OC(Cc1ccccc1F)(Cc1ccncc1Cl)Cn1cncn1 (centres unmarked) [Example I-12]	100	–	Eff. % (Septoria tritici; 100 ppm of active ingredient): 88%
0.91^[a]	OC(Cc1ccncc1F)(Cn1cncn1)c1cccnc1Cl (centres unmarked) [Example I-23]	88	–	Eff. % (Uromyces appendiculatus; 100 ppm of active ingredient): 92%
2.54^[a]	OC(Cc1cc(Cl)nc(Cl)c1)(Cn1cncn1)C1(Cl)CC1 (centres unmarked) [Example I-26]	100	–	Eff. % (Septoria tritici; 100 ppm of active ingredient): 97%
1.89^[a]	CC(CF)(CF)C(O)(Cc1cc(Cl)ncc1F)Cn1cncn1 (centres unmarked) [Example I-44]	100	–	Eff. % (Uromyces appendiculatus; 100 ppm of active ingredient): 94%
0.52^[a]	Cc1cccc(CC(O)(Cn2cncn2)C2(Cl)CC2)n1 (centres unmarked) [Example I-48]	–	–	Eff. % (Sphaerotheca fuliginea; 500 ppm of active ingredient): 83%; Eff. % (Uromyces appendiculatus; 500 ppm of active ingredient): 81%
2.02^[a]	OC(Cc1cccc(Cl)c1)(Cc1ccnc(Cl)c1F)Cn1cncn1 (racemic) [Example I-88]	–	–	Eff. % (Puccinia recondita; 500 ppm of active ingredient): 89%; Eff. % (Septoria tritici; 500 ppm of active ingredient): 100%; Eff. % (Sphaerotheca fuliginea; 500 ppm of active ingredient): 98%
3.08^[a]	OC(Cc1cc(Oc2ccc(Cl)cc2)nnc1Cl)(Cn1cncn1)C1(Cl)CC1 (centres unmarked) [Example I-55]	–	–	Eff. % (Puccinia recondita; 500 ppm of active ingredient): 79%; Eff. % (Septoria tritici; 500 ppm of active ingredient): 100%; Eff. % (Sphaerotheca fuliginea; 500 ppm of active ingredient): 100%; Eff. % (Uromyces appendiculatus; 500 ppm of active ingredient): 98%
1.73^[a]	OC(Cc1ccccc1F)(Cc1ccnc(Cl)c1F)Cn1cncn1 (racemic) [Example I-85]	–	–	Eff. % (Septoria tritici; 500 ppm of active ingredient): 78%; Eff. % (Sphaerotheca fuliginea; 500 ppm of active ingredient): 89%
1.38^[a]	OC(Cc1ccnc(Cl)c1)(Cn1cncn1)c1ccc(Cl)nc1 (centres unmarked) [Example I-38]	100	–	–
1.72^[a]	OC(Cc1cncc(Cl)n1)(Cn1cncn1)C1(Cl)CC1 (centres unmarked) [Example I-9]	94	–	–
1.54^[a]	OC(Cc1ccnc(Cl)c1F)(Cn1cncn1)c1cccnc1Cl (centres unmarked) [Example I-59]	–	–	Eff. % (Puccinia recondita; 500 ppm of active ingredient): 98%; Eff. % (Septoria tritici; 500 ppm of active ingredient): 100%; Eff. % (Sphaerotheca fuliginea; 500 ppm of active ingredient): 100%; Eff. % (Uromyces appendiculatus; 500 ppm of active ingredient): 100%
2.27^[a]	OC(Cc1cccc(Cl)c1)(Cc1ccncc1Cl)Cn1cncn1 (centres unmarked) [Example I-15]	98	–	Eff. % (Septoria tritici; 100 ppm of active ingredient): 94%
1.88^[a]	COc1nccnc1CC(O)(Cn1cncn1)C1(Cl)CC1 (racemic) [Example I-72]	–	–	Eff. % (Septoria tritici; 500 ppm of active ingredient): 80%; Eff. % (Sphaerotheca fuliginea; 500 ppm of active ingredient): 98%; Eff. % (Uromyces appendiculatus; 500 ppm of active ingredient): 100%
1.13^[a]	OC(Cc1cnccn1)(Cn1cncn1)C1(Cl)CC1 (centres unmarked) [Example I-11]	79	–	Eff. % (Uromyces appendiculatus; 100 ppm of active ingredient): 75%

LogP (pH 2.7)	SMILES	Eff. % (Sphaerotheca fuliginea; 100 ppm of active ingredient) [%]	LogP [1]	further results
2.34^[a]	OC(Cc1ccccc1F)(Cc1cc(Cl)ncc1F)Cn1cncn1 (racemic) [Example I-73]	–	–	Eff. % (Septoria tritici; 500 ppm of active ingredient): 100%; Eff. % (Sphaerotheca fuliginea; 500 ppm of active ingredient): 100%
2.76^[a]	OC(Cc1cc(Cl)cc(Cl)n1)(Cn1cncn1)C1(Cl)CC1 (centres unmarked) [Example I-17]	100	–	Eff. % (Septoria tritici; 100 ppm of active ingredient): 97%; Eff. % (Uromyces appendiculatus; 100 ppm of active ingredient): 94%
–	CC(C)(F)C(=O)Cc1ccncc1Cl [Example V-8]	–	1.97^[a]	–
–	O=C(Cc1ccc2ccccc2n1)C1(Cl)CC1 [Example V-1]	–	3.39^[a]	–
–	Clc1cnc(Cl)c(CC2(C3(Cl)CC3)CO2)c1 (centres unmarked) [XII-41]	–	3.87^[a]	–
–	O=C(Cc1ccc(Cl)nc1)C1(Cl)CC1 [Example V-6]	–	2.34^[a]	LogP (method [b]: LC-MS at pH 7.8, 0.001 molar ammonium hydrogen carbonate in water / acetonitrile gradient): 2.30^[b];
2.42^[a]	OC(Cc1cccc(Cl)c1)(Cc1ccnc(Cl)c1)Cn1cncn1 (centres unmarked) [Example I-37]	–	–	–
–	Clc1cncc(Cl)c1CC1(C2(Cl)CC2)CO1 (centres unmarked) [XII-32]	–	3.68^[a]	–
1.93^[a]	OC(Cc1ccc(F)cc1)(Cc1ccncc1Cl)Cn1cncn1 (racemic) [Example I-75]	–	–	Eff. % (Puccinia recondita; 500 ppm of active ingredient): 81%; Eff. % (Septoria tritici; 500 ppm of active ingredient): 100%; Eff. % (Sphaerotheca fuliginea; 500 ppm of active ingredient): 100%
–	CC1(C(=O)Cc2ccncc2Cl)CC1 [Example V-11]	–	1.85^[a]	–
–	Clc1cc(CC2(C3(Cl)CC3)CO2)c(Cl)cn1 (centres unmarked) [XII-42]	–	3.70^[a]	–
–	Fc1cnccc1CC1(C2(F)CC2)CO1 (centres unmarked) [XII-7]	–	1.63^[a]	–
0.99^[a]	OC(Cc1ccncc1F)(Cn1cncn1)c1ccc(Cl)nc1 (centres unmarked) [Example I-24]	94	–	Eff. % (Uromyces appendiculatus; 100 ppm of active ingredient): 92%
0.84^[a]	Cc1cc(C(O)(Cc2ccncc2Cl)Cn2cncn2)nn1C (racemic) [Example I-66]	–	–	Eff. % (Septoria tritici; 500 ppm of active ingredient): 92%; Eff. % (Sphaerotheca fuliginea; 500 ppm of active ingredient): 80%
1.57^[a]	OC(Cc1cc(Cl)ncc1F)(Cn1cncn1)c1cccnc1Cl (centres unmarked) [Example I-43]	100	–	–
2.88^[a]	OC(Cc1ncc(Cl)cc1Cl)(Cn1cncn1)C1(Cl)CC1 (centres unmarked) [Example I-97]	–	–	–
–	OC(Cc1ccncc1Cl)(Cn1cncn1)c1ccc2oc3ccccc3c2c1 (racemic) [Example I-80]	–	2.40^[a]	Eff. % (Puccinia recondita; 500 ppm of active ingredient): 88%; Eff. % (Septoria tritici; 500 ppm of active ingredient): 100%; Eff. % (Sphaerotheca fuliginea; 500 ppm of active ingredient): 100%; Eff. % (Uromyces appendiculatus; 500 ppm of active ingredient): 99%
2.69^[a]	OC(Cc1cccc(Cl)c1)(Cc1cc(Cl)ncc1F)Cn1cncn1 (racemic) [Example I-74]	–	–	Eff. % (Septoria tritici; 500 ppm of active ingredient): 100%; Eff. % (Sphaerotheca fuliginea; 500 ppm of active ingredient): 100%
–	CC1(C(=O)Cc2ccncc2Cl)CCCCC1 [Example V-12]	–	3.23^[a]	–
1.66^[a]	OC(Cc1cc(Cl)ncc1F)(Cn1cncn1)C1(F)CC1 (centres unmarked) [Example I-41]	100	–	Eff. % (Uromyces appendiculatus; 100 ppm of active ingredient): 94%

LogP (pH 2.7)	SMILES	Eff. % (Sphaerotheca fuliginea; 100 ppm of active ingredient) [%]	LogP [1]	further results
–	FC1(C2(Cc3ccncc3Cl)CO2)CC1 (centres unmarked) [XII-19]	–	2.06^[a]	–
–	O=C(Cc1ccncc1Cl)C1(Cl)CC1 [Example V-4]	–	2.13^[a]	–
1.26^[a]	OC(Cc1ccncc1Cl)(Cn1cncn1)c1ccc(Cl)nc1 (centres unmarked) [Example I-13]	94	–	Eff. % (Uromyces appendiculatus; 100 ppm of active ingredient): 95%
–	O=C(Cc1cccnc1F)C1(Cl)CC1 [Example V-16]	–	2.07^[a]	–
–	O=C(Cc1ncccc1Cl)C1(Cl)CC1 [Example V-2]	–	2.40^[a]	–
–	Clc1cc(CC2(C3(Cl)CC3)CO2)ccn1 (centres unmarked) [XII-11]	–	2.80^[a]	–
–	O=C(Cc1cnc2ccccc2c1)C1(Cl)CC1 [Example V-13]	–	1.60^[a]	–
–	Clc1cnccc1CC1(C2(Cl)CCCCC2)CO1 (centres unmarked) [XII-17]	–	3.80^[a]	–
–	Clc1ccnc(Cl)c1CC1(C2(Cl)CC2)CO1 (centres unmarked) [XII-40]	–	3.53^[a]	–
2.06^[a]	OC(Cc1ccnc(Cl)c1)(Cc1ccccc1F)Cn1cncn1 (centres unmarked) [Example I-35]	78	–	–
3.53^[a]	Cc1cccc2cc(CC(O)(Cn3cncn3)C3(Cl)CC3)c(Cl)nc12 (racemic) [Example I-84]	–	–	Eff. % (Puccinia recondita; 500 ppm of active ingredient): 88%; Eff. % (Septoria tritici; 100 ppm of active ingredient): 81%; Eff. % (Uromyces appendiculatus; 500 ppm of active ingredient): 100%
–	O=C(Cc1ccc(Cl)nc1Cl)C1(Cl)CC1 [Example V-17]	–	3.19^[a]	–
–	Fc1ncccc1CC1(C2(Cl)CC2)CO1 (centres unmarked) [XII-31]	–	2.47^[a]	–
1.35^[a]	OC(Cc1ccnc(Cl)c1)(Cn1cncn1)c1cccnc1Cl (centres unmarked) [Example I-34]	100	–	–
2.02^[a]	OC(Cc1cc(Cl)ccn1)(Cn1cncn1)C1(Cl)CC1 (centres unmarked) [Example I-47]	–	–	–
2.05^[a]	Cc1cnc(CC(O)(Cn2cncn2)C2(Cl)CC2)c(Cl)n1 (centres unmarked) [Example I-10]	75	–	–
2.46^[a]	OC(Cc1ccccc1F)(Cc1cc(F)ncc1Cl)Cn1cncn1 (racemic) [Example I-64]	–	–	Eff. % (Puccinia recondita; 500 ppm of active ingredient): 83%; Eff. % (Septoria tritici; 500 ppm of active ingredient): 97%; Eff. % (Sphaerotheca fuliginea; 500 ppm of active ingredient): 100%; Eff. % (Uromyces appendiculatus; 500 ppm of active ingredient): 94%
–	CC1(C(=O)Cc2cccnc2Cl)CC1 [Example V-9]	–	1.96^[a]	–
